# Measurements: patent US20100166727A1, “S-Adenosylmethionine And Methylthioadensosine In Chemoprevention And Treatment Of Colon Polyps And Cancer” (UNIVERSITY OF SOUTHERN CALIFORNIA, priority 2007, published 2010)
# “Also recorded” adds a separate entry of the source.
# Tests used:
# [1] = system: NCM460 cells; assay: Toxicity and apoptosis in NCM460 normal colonic epithelial cells; assay type: cell-based, human
# Experimental: In these experiments the total treatment duration was limited to 16 hrs to avoid the apoptotic effect. […] Apoptosis was measured by Hoechst staining or Annexin V and propidium iodide staining on flow cytometry.
# [2] = system: HT-29 cells; assay: Cellular SAMe and MTA levels in HT-29 cells; assay type: cell-based, human
# Experimental: (§1) HT-29 and RKO cells were obtained from the Cell Culture Core of the USC Liver Disease Research Center and grown according to instructions provided by the American Type Culture Collection (ATCC, Rockville, Md.). Prior to treatment with growth factors, SAMe or MTA, medium was changed to 0.1% FBS overnight.
# (§2) Cellular SAMe and MTA levels were measured (51) and polyamine levels were determined (52).
# [3] = system: c-FLIP; assay: c-FLIP mRNA level by real-time PCR in HT-29 cells; assay type: cell-based, human; settings: SAMe 2 mM, MTA 1 mM, 6 hrs, mean±SE
# [4] = system: Bcl-xL; assay: Bcl-xL mRNA level in HT-29 cells; assay type: cell-based, human; settings: MTA 1 mM, 6 hrs
# Experimental: SAMe and MTA induce apoptosis in liver cancer cells by the mitochondrial pathway (14). […] In liver cancer cells, SAMe and MTA induced selectively expression of Bcl-xs, a pro-apoptotic protein (67). We examined whether the same occurs in HT-29 cells. After 6 hrs of MTA (1 mM) treatment, Bcl-xL mRNA level fell by 53% (47±4% of control, results are mean±SE from 4 experiments, p<0.0005). […] This makes these agents particularly attractive in targeting colon cancer cells.
# [5] = system: MAT2A; assay: Intestinal MAT2A expression in mice given SAMe or MTA in drinking water; assay type: in vivo
# Experimental: FIG. 30. Effects of oral SAMe and MTA on colonic mRNA levels of MAT2A, MAT2 β, and cFLIPL. Mice were fed SAMe (150 to 450 mg/kg/d) or MTA (75 or 150 mg/kg/d) in drinking water for 6 days. Colonic mucosa was scrapped off and gene expression measured by real-time PCR.
# Three-month old male C57/B6 mice were fed ad libitum a standard diet (Harland Tekiad irradiated mouse diet 7912, Madison, Wis.), caged individually and had free access to water supplemented with SAMe ([…]), MTA (75 mg/kg/d), phosphate buffered saline (vehicle for SAMe) or DMSO (0.2%, vehicle for MTA) for 6 days. SAMe and MTA were made fresh daily. The amount of water intake, body weight, and animal behavior were closely monitored. After 6 days, animals were sacrificed, intestine was cut open along the longitudinal axis, and mucosa was stripped from the intestine (46). Mucosa was weighed and a portion processed for SAMe measurement as described below, the rest snap frozen for subsequent RNA extraction.
# (§3) Total RNA was isolated by the EZgeno total RNA isolation kit (Genemega, San Giego, Calif.), and subjected to reverse transcription (RT) by using M-MLV Reverse transcriptase (Invitrogen). 2 μl of RT product was subjected to quantitative real-time PCR analysis. The primers and TaqMan probes for MAT2A, MAT2β and Universal PCR Master Mix were purchased from ABI (Foster City, Calif.). Hypoxanthine phosphoribosyl-transferase 1 (HPRT1) and ubiquitin C (UBC) were used as housekeeping genes (48). The thermal profile consisted of 1 cycle at 95° C. for 15 minutes followed by 40 cycles at 95° C. for 15 seconds and at 60° C. for 1 minute. The expression of MAT2A and MAT2β was checked by normalizing the Ct of MAT2A and MAT2β to that of the control housekeeping gene (HPRT1 or UBC) (49). The delta Ct obtained was used to find the relative expression of MAT genes according to the formula: Relative expression=2·^ΔCt, where ΔCt=ΔCt of MAT genes in colon cancer or treated cells—ΔCt of MAT genes in normal colon or control cells.
# [6] = system: ornithine decarboxylase (ODC); assay: ODC expression by real-time PCR in HT-29 cells; assay type: cell-based, human
# [7] = Tolerability of oral SAMe and MTA in mice; assay type: in vivo; settings: oral in drinking water, 6 days; weight gain and water consumption similar to controls
# Excerpt: SAMe and MTA were made fresh daily. The amount of water intake, body weight, and animal behavior were closely monitored. After 6 days, animals were sacrificed, intestine was cut open along the longitudinal axis, and mucosa was stripped from the intestine (46). Mucosa was weighed and a portion processed for SAMe measurement as described below, the rest snap frozen for subsequent RNA extraction.
# [8] = system: spermine synthase (SPM syn); assay: SPM syn expression by real-time PCR in HT-29 cells; assay type: cell-based, human
# [9] = system: MAT2A; assay: MAT2A mRNA levels by real-time PCR in HT-29 cells; assay type: cell-based, human
# Experimental: as §1
# RNA interference (RNAi) experiments were performed using Lipofectamine RNAiMax (Invitrogen) according to the manufacturer's instructions. Small interfering RNA (siRNA) oligonucleotides for MAT2A and scrambled siRNA were synthesized by the USC Norris Comprehensive Cancer Center Microchemical Core Laboratory, and annealed to form duplexes. Stealth RNAi for MAT2A and Stealth RNAi negative control duplexes were synthesized by Invitrogen (Carlsbad, Calif.). The following siRNA sequences were used: si-MAT2A #1, 5′-[…]-3′ (sense) and 5′-[…]-3′ (antisense); si-control with scrambled sequence (negative control siRNA having no perfect matches to known human genes), 5′-[…]dTdT-3′ (sense) and 5% […]dTdT-3′ (antisense); stealth RNAi-MAT2A #5, 5′-[…]-3′ (sense) and 5′-[…]-3′ (antisense). […]
# as §3
# [10] = Stability of SAMe and MTA in culture medium without cells and in water; assay type: physicochemical; settings: culture medium at 37° C., MTA 1 mM
# Experimental: FIG. 12. […] SAMe (A) and MTA (B) levels were measured in culture medium without cells with starting SAMe concentrations ranging from 1 to 5 mM and MTA concentration at 1 mM.
# To test whether the mitogens-induce increase in. MAT2A is to provide increased SAMe necessary for polyamine synthesis in growing cells, SAMe and polyamine levels were measured following treatment of HT-29 cells with mitogens.
# [11] = system: MAT2β; assay: Colonic MAT2β mRNA in mice fed SAMe or MTA; assay type: in vivo; settings: 75 mg/kg/d MTA, 6 days
# Experimental: FIG. 30. Effects of oral SAMe and MTA on colonic mRNA levels of MAT2A, MAT2 β, and […]. Mice were fed SAMe (150 to 450 mg/kg/d) or MTA (75 or 150 mg/kg/d) in drinking water for 6 days. Colonic mucosa was scrapped off and gene expression measured by real-time PCR.
# [12] = system: SPD syn; assay: SPD syn expression by real-time PCR in HT-29 cells; assay type: cell-based, human
# [13] = system: MAT2A; assay: MAT2A expression in NCM460 cells; assay type: cell-based, human; settings: 5 mM SAMe or 1 mM MTA, 6 hrs
# Experimental: as §3
# NCM460 cell line was originally established in 1996 as the first non-malignant colonic epithelial cell line derived from the transverse colon (43). When first developed, cells formed both monolayer and in suspension, express villin and cytokeratin staining (43). […] The NCM460 cells in monolayer have features of transverse colon crypt cells (69). […]
# [14] = system: colon cancer cells; settings: by lowering c-FLIP expression; cited from earlier work
# [15] = system: MAT2A; assay: MAT2A mRNA levels by real-time PCR in RKO cells; assay type: cell-based, human; settings: RKO cells, growth factor 100 ng/ml
# Experimental: as §1
# RNA interference (RNAi) experiments were performed using Lipofectamine RNAiMax (Invitrogen) according to the manufacturer's instructions. Small interfering RNA (siRNA) oligonucleotides for MAT2A and scrambled siRNA were synthesized by the USC Norris Comprehensive Cancer Center Microchemical Core Laboratory, and annealed to form duplexes. Stealth RNAi for MAT2A and Stealth RNAi negative control duplexes were synthesized by Invitrogen (Carlsbad, Calif.). The following siRNA sequences were used: si-MAT2A #1, 5′-[…]-3′ (sense) and 5′-[…]-3′ (antisense); si-control with scrambled sequence (negative control siRNA having no perfect matches to known human genes), 5′-[…]dTdT-3′ (sense) and 5% […]dTdT-3′ (antisense); stealth RNAi-MAT2A #5, 5′-[…]-3′ (sense) and 5′-[…]-3′ (antisense). Transfection was allowed to proceed 72 hours before collection for different assays.
# as §3
# [16] = system: MAT2β; assay: MAT2β mRNA levels by real-time PCR in HT-29 cells; assay type: cell-based, human; settings: HT29 cells, growth factor 100 ng/ml
# Experimental: as §1, §3
# [17] = system: HT-29 cells; assay: Polyamine levels in HT-29 cells; assay type: cell-based, human; settings: 6 hrs, mitogen 100 ng/ml
# Experimental: as §1, §2
# [18] = system: MAT2β; assay: MAT2β (total, V1, V2) mRNA levels by real-time PCR in RKO cells; assay type: cell-based, human; settings: growth factor 100 ng/ml
# Experimental: as §1
# as §3, with “The delta Ct obtained was used to find the relative expression of MAT genes according to the formula: Relative expression=2·^ΔCt, where ΔCt=ΔCt of MAT genes in colon cancer or treated cells—ΔCt of MAT genes in normal colon or control cells.” left out
# To better understand functional differences between the two MAT2β variants, we created vectors expressing either V1 or V2 using the mammalian expression vector pcDNA3.1D/V5-His/TOPO vector (Invitrogen). […] Cell growth was measured by 3H-thymidine incorporation into DNA. […]
# [19] = 75 mg/kg/d in drinking water, six days
compound,measurement,setting,value
"CSC[C@H]1O[C@@H](n2cnc3c(N)ncnc32)[C@H](O)[C@@H]1O [MTA, methylthioadenosine]",toxicity in NCM460 cells,"[1]; SAMe 0.2 to 2 mM, MTA 0.2 to 5 mM",did not cause any toxicity
same,apoptosis in NCM460 cells,"[1]; SAMe up to 2 mM, MTA up to 5 mM",do not cause apoptosis
same,MTA level,"[2]; 6 hrs, MTA 1 mM",0.652 ± 0.123 nmol/mg protein
same,SAMe level,"[2]; 6 hrs, MTA 1 mM",0.81 ± 0.09 nmol/mg protein
same,MTA level,"[2]; 16 hrs, MTA 1 mM",0.689 ± 0.108 nmol/mg protein
same,SAMe level,"[2]; 16 hrs, MTA 1 mM",0.54 ± 0.01 nmol/mg protein
same,c-FLIP mRNA level,[3],47±4 % of control
same,fall of Bcl-xL mRNA level,[4],53%
same,Bcl-xL mRNA level,[4]; mean±SE from 4 experiments,47±4 % of control
same,"MAT2A expression, colon",[5]; [19],87 ± 20 % of control MAT2A mRNA levels
same,"MAT2A expression, proximal small intestine",[5]; [19],82 ± 2 % of control MAT2A mRNA levels
same,inhibition in colonic MAT2A mRNA level,"[5]; MTA 75 mg/kg/d, 6 days",85%
same,decrease of MAT2A expression in proximal small intestine,"[5]; SAMe 150 mg/kg/d, MTA 75 mg/kg/d, six days",20%
same,lowering of ornithine decarboxylase (ODC) mRNA level,[6]; MTA treatment for 6 hrs,30%
same,tolerability / toxicity,[7],well tolerated; also recorded: no apparent toxicity
same,lowering of spermine synthase mRNA level,[8]; MTA treatment for 6 hrs,30%
same,reduction of baseline expression of MAT2A,"[9]; SAMe 5 mM or MTA 1 mM, 6 hrs, HT29 cells",60%
same,stability,[10],highly stable; also recorded: no change in 24 hrs
same,inhibition of MAT2β expression,[11],60%
same,lowering of spermidine synthase mRNA level,[12]; MTA treatment for 6 hrs,30%
same,reduction of MAT2A expression,[13],40%
"O=c1[nH]cc(F)c(=O)[nH]1 [5-FU, 5-fluorouracil]",TRAIL-induced apoptosis,[14],sensitize colon cancer cells to TRAIL-induced apoptosis
Leptin: growth factor implicated in colon cancer growth and invasion,MAT2A mRNA levels after growth factor,[15],near doubling
same,MAT2β expression after growth factor,[16],not affected
same,MTA level,"[2]; 6 hrs, mitogen 100 ng/ml",0.058 ± 0.010 nmol/mg protein
same,SAMe level,"[2]; 6 hrs, mitogen 100 ng/ml",0.48 ± 0.04 nmol/mg protein
same,MTA level,"[2]; 16 hrs, mitogen 100 ng/ml",0.064 ± 0.015 nmol/mg protein
same,SAMe level,"[2]; 16 hrs, mitogen 100 ng/ml",0.63 ± 0.02 nmol/mg protein
same,ODC expression,"[6]; 6 hrs, mitogen 100 ng/ml",1.6 ± 0.09 fold of control
same,Putrescine,[17],0.27 ± 0.02 nmol/mg protein
same,Spermidine,[17],2.62 ± 0.02 nmol/mg protein
same,Spermine,[17],14.62 ± 2.70 nmol/mg protein
same,MAT2β expression after growth factor,[18],not affected
same,SPM syn expression,"[8]; 6 hrs, mitogen 100 ng/ml",1.0 ± 0.05 fold of control
same,MAT2A mRNA levels after growth factor,"[9]; HT-29 cells, growth factor 100 ng/ml",near doubling
same,SPD syn expression,"[12]; 6 hrs, mitogen 100 ng/ml",2.3 ± 0.25 fold of control
